Tests used:
[1] = test system: PAF-induced bronchial asthma; experiment: Asthma-protective action in guinea pigs: PAF-induced bronchial asthma (inhalation, dual-chamber body plethysmograph); type: in vivo, guinea pig; conditions: for effects on PAF-induced and allergic reactions compared with androsin (in words): PAF-induced and allergic (ovalbumin) reactions
Description: (§1) b) Asthma-protective action of the acetophenone compound in guinea pigs.
(§2) Male white "Pirbright" guinea pigs were sensitized to ovalbumin by means of the well-known methods. Inhalation experiments were conducted 4 to 6 weeks later.
(§3) Spontaneously breathing animals were placed in a dual-chamber body plethysmograph in which the two chambers were separated around the head of the animals by a rubber collar filled with water. Changes in volume in the two chambers were measured by means of pressure transfer systems. The degree of bronchial obstruction was determined by means of the parameter, "compressed air". This technique is ten times more sensitive than other invasive methods (Dorsch et al., Pflugers Arch., 1981, 391: 236 to 241).
(§4) Groups of 10 to 14 animals were divided into two sub-groups and either treated with the test substance or with a solution. Three or four days later the experiments were repeated with those animals which had previously been given the control being given the test substance and vice-versa (each animal was once given either the test substance or the solvent).
Ovalbumin, histamine and acetylcholine were dissolved in saline solution; PAF was first dissolved in ethanol and then in saline solution containing 0.25% of bovine serum albumin to a final concentration of 1 μg PAF per ml. Ovalbumin, PAF, histamine and acetylcholine were administered in the form of an aerosol produced by ultrasound.
The effect of the test substance on the PAF-induced hyperreactivity was studied by means of successive inhalation of histamine, PAF and histamine. One group of animals was divided into two sub-groups with both sub-groups inhaling histamine in a dose leading to moderate bronchial obstruction. One hour later, one group was given the substance to be tested and the other group was given the solvent alone. Both groups were induced later by the successive inhalation of PAF and histamine. First 1 μg of PAF and 60 minutes later the same dose of histamine as before was given. The second contact with histamine in control animals usually leads to asthmatic reactions which are three times as great as after the first contact, […]

[2] = test system: human peripheral leukocytes; experiment: Inhibition of histamine release from human peripheral leukocytes; type: cell-based; conditions: for inhibition at 0.1 µg/mL / inhibition at 1 µg/mL / inhibition at 10 µg/mL / inhibition at 100 µg/mL: Homo sapiens, Leukocyte; for inhibition at 0.1 µg/mL: 0.0001 mg/ml; for inhibition at 1 µg/mL: 0.001 mg/ml; for inhibition at 10 µg/mL: 0.01 mg/ml; for inhibition at 100 µg/mL: 0.1 mg/ml
Description: Venous blood was withdrawn from atopic donors and the peripheral leukocytes were obtained by means of dextran sedimentation. The purified cells were preincubated with three or four different concentrations of the substance to be tested and with the solvent alone. After 10 minutes, rabbit antihuman IgE antibodies, plasma containing anaphylatoxin (C5a) according to Vallota and Muller-Eberhard, calcium ionophore or saline solution were added to the cells. 30 minutes later, the reaction was stopped and the histamine concentration was measured in the […] by means of spectrofluorometry.
The results are shown in table 1 with the inhibition of the histamine release shown in percent of the maximal release by perchloric acid, corrected by the spontaneous release without stimulation.

[3] = test system: allergic bronchial asthma (ovalbumin inhalation); experiment: Asthma-protective action in guinea pigs: allergic (ovalbumin-induced) bronchial asthma (inhalation, dual-chamber body plethysmograph); type: in vivo, guinea pig
Description: as §1, §2, §3, §4
Ovalbumin, histamine and acetylcholine were dissolved in saline solution; PAF was first dissolved in ethanol and then in saline solution containing 0.25% of bovine serum albumin to a final concentration of 1 μg PAF per ml. […]

[4] = A 12387 (calcium ionophore) stimulus
[5] = oral dose of 10 mg/kg body weight

Row | SMILES | effects on PAF-induced and allergic reactions compared with androsin (in words) [1] | inhibition at 0.1 µg/mL [2, 4] [%] | inhibition at 1 µg/mL [2, 4] [%] | inhibition at 10 µg/mL [2, 4] [%] | inhibition at 100 µg/mL [2, 4] [%] | inhibition at 0.1 µg/mL ([2]; C5a stimulus) [%] | inhibition at 1 µg/mL ([2]; C5a stimulus) [%] | inhibition at 10 µg/mL ([2]; C5a stimulus) [%] | inhibition at 100 µg/mL ([2]; C5a stimulus) [%] | inhibition at 0.1 µg/mL ([2]; α-IgE stimulus) [%] | inhibition at 1 µg/mL ([2]; α-IgE stimulus) [%] | inhibition at 10 µg/mL ([2]; α-IgE stimulus) [%] | inhibition at 100 µg/mL ([2]; α-IgE stimulus) [%] | inhibition of histamine release in vitro (in words) ([2]; in vitro experiment of table 1) | reduction of PAF-induced reactions ([1]; aerosol, 0.5 mg/animal) [%] | reduction of PAF-induced bronchial asthma in vivo [1, 5] [%] | reduction of allergic reactions ([3]; aerosol, 0.5 mg/animal) [%] | reduction of allergic bronchial asthma in vivo [3, 5] [%]
1 | COc1ccc(C(=O)CO)c(OC)c1 [2,4-dimethoxy-2-hydroxyacetophenone] | Essentially, the same effects are achieved |  |  |  |  |  |  |  |  |  |  |  |  |  |  |  |  | 
2 | COc1cc(C(C)=O)ccc1O[C@@H]1O[C@H](CO)[C@@H](O)[C@H](O)[C@H]1O [Androsin, androsin] |  | -3.6 | -0.4 | -14.9 | -12.5 | -5.4 | -4.5 | 3.7 | -4.3 | 2.8 | 0.5 | 5.5 | 10.9 | not effective | 72 | 72 | 67 | 67
3 | COc1cc(C(C)=O)ccc1O [apocynin] | Essentially, the same effects are achieved |  |  |  |  |  |  |  |  |  |  |  |  |  |  |  |  | 

Reference: patent US5481043A, “Phenone compounds, manufacturing method and pharmaceutical preparations containing them” (priority 1991, dated 1996)
